Experiments:
whole blood [1] = test: ROTEM whole blood coagulation with rabbit brain-derived tissue thromboplastin (TP) + Ca 12 mM (CTI 20 μg/mL, PKSI-527 40 μM where stated); format: cell-based; settings: for prolongation of blood coagulation by addition of rTM: Ex5-8, TP 0.9 μg/mL+Startem, FRAGMIN 0.2 U/mL or ARIXTRA 0.5 μg/mL instead of heparan sulfate, rTM 20 or 30 nM
whole blood [2] = test: ROTEM whole blood coagulation with dialyzed Dade Innovin (recombinant tissue factor) 0.569 μg/mL + Ca 12 mM + CTI 20 μg/mL + PKSI-527 40 μM; format: cell-based; settings: Ex28; for CT (clotting time): Innovin 0.569 μg/mL+Ca+CTI+PKSI-527, ARIXTRA 0.5 ug/mL
Procedure: ROTEM was used to analyze blood coagulation.
Blood was collected using a blood collection tube containing 3.2% sodium citrate manufactured by Terumo Corporation.
Blood coagulation was analyzed in the case of having added 4% (final concentration 0.569 μg/mL) of Dade Innovin (recombinant tissue factor: Sysmex Corporation) having being diluted by 50 times after dialysis, calcium chloride (Ca; final concentration 12 mM), heparan sulfate (final concentration 0 or 2 μg/mL), CTI (final concentration 20 μg/mL), PKSI-527 (final concentration 40 μM) without and with a soluble thrombomodulin (rTM: final concentration 30 nM) further having been added, as well as with an APC inhibitory aptamer (HS02-44G; final concentration 1 μM) in addition to 30 nM of soluble thrombomodulin.
Blood coagulation was analyzed in the case of having added 4% (final concentration 0.569 μg/mL) of 50-fold diluted Dade Innovin (recombinant tissue factor: Sysmex Corporation) after dialysis, calcium chloride (Ca; final concentration 12 mM), low molecular weight heparan (trade name FRAGMIN; Pfizer) (final concentration 0 or 0.2 U/mL), CTI (final concentration 20 μg/mL), and PKSI-527 (final concentration 40 μM) with and without a soluble thrombomodulin (rTM; final concentration 30 nM) further having been added, as well as with an APC inhibitory aptamer (HS02-44G; final concentration 1 μM) in addition to 30 nM soluble thrombomodulin.
ROTEM was used to analyze coagulation.
Blood coagulation was analyzed in the case of having added 4% (final concentration 0.569 μg/mL) of 50-fold diluted Dade Innovin (recombinant tissue factor: Sysmex Corporation) after dialysis, calcium chloride (Ca; final concentration 12 mM), ARIXTRA (final concentration 0 or […]), CTI (final concentration 20 μg/mL), and PKSI-527 (final concentration 40 μM), without and with thrombomodulin (rTM; final concentration 30 nM) further having been added, as well as with an APC inhibitory aptamer (HS02-44G; final concentration 1 μM) in addition to soluble thrombomodulin 30 nM.

[3] = unfractionated heparin 0.1 U/mL
[4] = Ex20, TP 16.6 μg/mL+Ca+CTI+PKSI-527, ARIXTRA 0.5 μg/mL, no rTM
[5] = Ex20, TP 16.6 μg/mL+Ca+CTI+PKSI-527, ARIXTRA 0.5 μg/mL, rTM 100 nM
[6] = Ex20, TP 16.6 μg/mL+Ca+CTI+PKSI-527, ARIXTRA 2.0 μg/mL, no rTM
[7] = Ex20, TP 16.6 μg/mL+Ca+CTI+PKSI-527, ARIXTRA 2.0 μg/mL, rTM 100 nM
[8] = Ex20, TP 16.6 μg/mL+Ca+CTI+PKSI-527, ARIXTRA 3.0 μg/mL, no rTM
[9] = Ex20, TP 16.6 μg/mL+Ca+CTI+PKSI-527, ARIXTRA 3.0 μg/mL, rTM 100 nM
[10] = Ex20, TP 16.6 μg/mL+Ca+CTI+PKSI-527, ARIXTRA 4.0 μg/mL, no rTM
[11] = Ex20, TP 16.6 μg/mL+Ca+CTI+PKSI-527, ARIXTRA 4.0 μg/mL, rTM 100 nM
[12] = Ex20, TP 16.6 μg/mL+Ca+CTI+PKSI-527, ARIXTRA 5.0 μg/mL, no rTM
[13] = Ex20, TP 16.6 μg/mL+Ca+CTI+PKSI-527, ARIXTRA 5.0 μg/mL, rTM 100 nM
[14] = Ex21, TP 0.64 μg/mL+Ca+CTI+PKSI-527, ARIXTRA 0.5 μg/mL, no rTM
[15] = Ex21, TP 0.64 μg/mL+Ca+CTI+PKSI-527, ARIXTRA 0.5 μg/mL, rTM 30 nM
[16] = Ex22, TP 0.055 μg/mL+Ca+CTI+PKSI-527, ARIXTRA 0.05 μg/mL, no rTM
[17] = Ex22, TP 0.055 μg/mL+Ca+CTI+PKSI-527, ARIXTRA 0.05 μg/mL, rTM 20 nM
[18] = Ex22, TP 0.055 μg/mL+Ca+CTI+PKSI-527, ARIXTRA 0.20 μg/mL, no rTM
[19] = Ex22, TP 0.055 μg/mL+Ca+CTI+PKSI-527, ARIXTRA 0.20 μg/mL, rTM 20 nM
[20] = Ex19, TP 16.6 μg/mL+Ca+CTI+PKSI-527, unfractionated heparin 0.1 U/mL, no rTM
[21] = Ex19, TP 16.6 μg/mL+Ca+CTI+PKSI-527, unfractionated heparin 0.1 U/mL, rTM 100 nM
[22] = Ex19, TP 16.6 μg/mL+Ca+CTI+PKSI-527, unfractionated heparin 0.2 U/mL, no rTM
[23] = Ex19, TP 16.6 μg/mL+Ca+CTI+PKSI-527, unfractionated heparin 0.2 U/mL, rTM 100 nM
[24] = Ex19, TP 16.6 μg/mL+Ca+CTI+PKSI-527, unfractionated heparin 0.3 U/mL, no rTM
[25] = Ex19, TP 16.6 μg/mL+Ca+CTI+PKSI-527, unfractionated heparin 0.3 U/mL, rTM 100 nM

CO[C@H]1O[C@H](COS(=O)(=O)O)[C@@H](O[C@@H]2O[C@@H](C(=O)O)[C@@H](O[C@H]3O[C@H](COS(=O)(=O)O)[C@@H](O[C@@H]4O[C@H](C(=O)O)[C@@H](O[C@H]5O[C@H](COS(=O)(=O)O)[C@@H](O)[C@H](O)[C@H]5NS(=O)(=O)O)[C@H](O)[C@H]4O)[C@H](OS(=O)(=O)O)[C@H]3NS(=O)(=O)O)[C@H](O)[C@H]2OS(=O)(=O)O)[C@H](O)[C@H]1NS(=O)(=O)O [ARIXTRA, fondaparinux sodium]
prolongation of blood coagulation by addition of rTM (whole blood [1]; [3]): markedly prolonged | CT values (whole blood [1]; Ex20, TP 16.6 μg/mL+Ca+CTI+PKSI-527, ARIXTRA 0, 0.5 μg/mL, no rTM): < 1 min | CFT (clot formation time) (whole blood [1]; [4]): 86 s | CT (clotting time) (whole blood [1]; [4]): 52 s | CFT (clot formation time) (whole blood [1]; [5]): 69 s | CT (clotting time) (whole blood [1]; [5]): 68 s | CFT (clot formation time) (whole blood [1]; [6]): 64.0 s | CT (clotting time) (whole blood [1]; [6]): 64 s | CFT (clot formation time) (whole blood [1]; [7]): 61 s | CT (clotting time) (whole blood [1]; [7]): 96 s | CFT (clot formation time) (whole blood [1]; [8]): 78.0 s | CT (clotting time) (whole blood [1]; [8]): 72 s | CFT (clot formation time) (whole blood [1]; [9]): 68 s | CT (clotting time) (whole blood [1]; [9]): 112 s | CFT (clot formation time) (whole blood [1]; [10]): 70.0 s | CT (clotting time) (whole blood [1]; [10]): 75 s | CFT (clot formation time) (whole blood [1]; [11]): 77 s | CT (clotting time) (whole blood [1]; [11]): 118 s | CFT (clot formation time) (whole blood [1]; [12]): 77.0 s | CT (clotting time) (whole blood [1]; [12]): 78 s | CFT (clot formation time) (whole blood [1]; [13]): 105 s | CT (clotting time) (whole blood [1]; [13]): 114 s | CFT (clot formation time) (whole blood [1]; [14]): 74 s | CT (clotting time) (whole blood [1]; [14]): 294 s | CFT (clot formation time) (whole blood [1]; [15]): 794 s | CT (clotting time) (whole blood [1]; [15]): 581 s | CFT (clot formation time) (whole blood [1]; [16]): 145 s | CT (clotting time) (whole blood [1]; [16]): 619 s | CFT (clot formation time) (whole blood [1]; [17]): 403 s | CT (clotting time) (whole blood [1]; [17]): 1074 s | CFT (clot formation time) (whole blood [1]; [18]): 232 s | CT (clotting time) (whole blood [1]; [18]): 799 s | blood clotting time (whole blood [1]; Ex22, TP 0.055 μg/mL+Ca+CTI+PKSI-527, ARIXTRA 0.2 μg/mL, rTM 20 nM): ≥ 1 h | CFT (clot formation time) (whole blood [1]; [19]): No CFT | CT (clotting time) (whole blood [1]; [19]): No CT | CT (clotting time) (whole blood [2]; no rTM): 466 s | CT (clotting time) (whole blood [2]; rTM 30 nM): 996 s | CT (clotting time) (whole blood [2]; rTM 30 nM+APC inhibitory aptamer 1 μM): 474 s | anticoagulation ability of the soluble thrombomodulin (whole blood [2]; addition of ARIXTRA 0.5 μg/mL, rTM 30 nM): markedly enhanced

Unfractionated heparin
prolongation of blood coagulation by addition of rTM (whole blood [1]; [3]): markedly prolonged | CFT (clot formation time) (whole blood [1]; [20]): 98 s | CT (clotting time) (whole blood [1]; [20]): 53 s | CFT (clot formation time) (whole blood [1]; [21]): 93 s | CT (clotting time) (whole blood [1]; [21]): 66 s | CFT (clot formation time) (whole blood [1]; [22]): 82.0 s | CT (clotting time) (whole blood [1]; [22]): 73 s | CFT (clot formation time) (whole blood [1]; [23]): 102 s | CT (clotting time) (whole blood [1]; [23]): 89 s | CFT (clot formation time) (whole blood [1]; [24]): 86.0 s | CT (clotting time) (whole blood [1]; [24]): 69 s | CFT (clot formation time) (whole blood [1]; [25]): 161 s | CT (clotting time) (whole blood [1]; [25]): 182 s
